According to patent US20240270762A1, “PENICILLIN-BINDING PROTEIN INHIBITORS” (priority 2021, published 2024):
In brackets after ≈: the same amount, converted by molar mass. Where two headings read alike, the source gives them in different places.

Columns and labels:
A. baumannii CDC-0045 = assay: microbe, parasite or virus in culture; type: cell-based; conditions: Acinetobacter baumannii
[1] = test system: P. aeruginosa (ΔmexAB-oprM); assay: Broth microdilution MIC in iron-depleted CAMHB (IDM); type: cell-based; conditions: Pseudomonas aeruginosa; iron-depleted CAMHB (IDM); […]; read-out: Minimum inhibitory concentration, P. aeruginosa ΔmexAB-oprM
[2] = test system: B. humptydooensis ATCC BAA-2767; assay: microbe, parasite or virus in culture; type: cell-based; conditions: Burkholderia humptydooensis, ATCCBAA2767, read-out: Minimum inhibitory concentration (MIC), B. humptydooensis ATCC BAA-2767
P. aeruginosa ATCC 27853 = assay: microbe, parasite or virus in culture; type: cell-based; conditions: Pseudomonas aeruginosa, ATCC27853, read-out: Minimum inhibitory concentration, P. aeruginosa ATCC 27853
A. baumannii 1258916 = assay: microbe, parasite or virus in culture; type: cell-based, Acinetobacter baumannii
P. aeruginosa CDC-0090 = assay: microbe, parasite or virus in culture; type: cell-based; conditions: Pseudomonas aeruginosa, CDC0090, read-out: Minimum inhibitory concentration, P. aeruginosa CDC-0090
A. baumannii PBP1a = target: T1, A. baumannii PBP1a (Acinetobacter baumannii, UniProt A0ABX6CK30); assay: Bocillin-FL competition binding via gel filtration, A. baumannii PBP1a
T1 sequence (A0ABX6CK30 1-851): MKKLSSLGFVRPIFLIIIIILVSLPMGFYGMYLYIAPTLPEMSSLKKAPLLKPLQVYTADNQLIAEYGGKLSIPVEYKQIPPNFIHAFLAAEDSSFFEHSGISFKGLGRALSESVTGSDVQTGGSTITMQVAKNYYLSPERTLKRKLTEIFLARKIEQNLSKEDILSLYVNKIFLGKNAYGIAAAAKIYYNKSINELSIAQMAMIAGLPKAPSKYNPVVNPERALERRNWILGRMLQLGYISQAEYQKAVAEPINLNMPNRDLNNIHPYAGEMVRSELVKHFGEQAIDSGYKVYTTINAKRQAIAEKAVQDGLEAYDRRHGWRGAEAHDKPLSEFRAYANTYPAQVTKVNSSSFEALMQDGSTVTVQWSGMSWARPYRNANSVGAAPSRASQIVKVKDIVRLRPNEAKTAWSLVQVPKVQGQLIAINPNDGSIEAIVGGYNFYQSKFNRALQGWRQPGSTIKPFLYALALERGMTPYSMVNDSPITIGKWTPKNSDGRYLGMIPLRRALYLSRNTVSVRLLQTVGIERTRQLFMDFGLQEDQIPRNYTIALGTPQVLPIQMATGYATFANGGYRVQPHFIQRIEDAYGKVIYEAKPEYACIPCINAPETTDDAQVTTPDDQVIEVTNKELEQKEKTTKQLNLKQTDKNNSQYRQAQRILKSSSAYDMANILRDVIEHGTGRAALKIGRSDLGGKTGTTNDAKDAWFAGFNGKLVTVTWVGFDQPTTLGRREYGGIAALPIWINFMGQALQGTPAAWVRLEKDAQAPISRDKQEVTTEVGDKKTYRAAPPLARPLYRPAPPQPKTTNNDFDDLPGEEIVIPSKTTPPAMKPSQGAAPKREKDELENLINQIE
Summary of the method: (§1)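 Competitive equilibrium binding with Bocillin-FL reporter: PBP pre-incubated with inhibitor dilutions, Bocillin-FL added, 15 min incubation. Labelled enzyme isolated by size-exclusion spin plates, fluorescence measured; EC50 obtained by fitting bound fraction against inhibitor concentration with a Hill-coefficient model.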

A. baumannii PBP2 = A. baumannii PBP2 (Acinetobacter baumannii, UniProt D0C8Z9); assay: Bocillin-FL competition binding via gel filtration, A. baumannii PBP2
Summary of the method: as §1

P. aeruginosa CDC-0054 = assay: microbe, parasite or virus in culture; type: cell-based; conditions: Pseudomonas aeruginosa, CDC0054, read-out: Minimum inhibitory concentration, P. aeruginosa CDC-0054
[3] = CDC0045, read-out: Minimum inhibitory concentration (MIC), A. baumannii CDC-0045
[4] = Acinetobacter baumannii, 1258916, read-out: Minimum inhibitory concentration (MIC), A. baumannii 1258916
[5] = competition binding assay using Bocillin-FL via gel filtration, read-out: A. baumannii PBP1a Potency
[6] = CDC0045, read-out: MIC, A. baumannii CDC-0045
[7] = Acinetobacter baumannii, 1258916, read-out: MIC, A. baumannii 1258916

Sequence of A. baumannii PBP2 (D0C8Z9 whole entry): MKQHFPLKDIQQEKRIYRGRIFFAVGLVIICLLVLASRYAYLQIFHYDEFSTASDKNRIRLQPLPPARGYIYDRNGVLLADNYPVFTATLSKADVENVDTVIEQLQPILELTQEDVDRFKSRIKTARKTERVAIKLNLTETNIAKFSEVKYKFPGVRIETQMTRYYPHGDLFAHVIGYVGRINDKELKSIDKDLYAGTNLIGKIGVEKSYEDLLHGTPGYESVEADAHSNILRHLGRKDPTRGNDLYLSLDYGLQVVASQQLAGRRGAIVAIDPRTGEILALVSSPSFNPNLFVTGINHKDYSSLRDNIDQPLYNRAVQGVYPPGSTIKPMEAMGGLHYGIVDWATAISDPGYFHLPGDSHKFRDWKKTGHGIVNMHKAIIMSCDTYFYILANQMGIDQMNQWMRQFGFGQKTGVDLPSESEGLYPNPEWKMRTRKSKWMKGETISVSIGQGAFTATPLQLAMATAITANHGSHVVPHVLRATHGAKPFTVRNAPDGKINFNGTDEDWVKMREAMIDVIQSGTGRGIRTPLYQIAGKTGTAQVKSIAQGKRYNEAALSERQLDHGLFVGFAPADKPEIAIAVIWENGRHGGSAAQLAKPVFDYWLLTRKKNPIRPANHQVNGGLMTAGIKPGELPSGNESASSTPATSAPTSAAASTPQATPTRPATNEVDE

Row | Structure (SMILES) | MIC (A. baumannii CDC-0045; [3]) | MIC [1] | MIC [2] | MIC (P. aeruginosa ATCC 27853) | MIC (A. baumannii 1258916; [4]) | MIC (P. aeruginosa CDC-0090) | EC50 (A. baumannii PBP1a; [5]) | EC50 (A. baumannii PBP2) | MIC (P. aeruginosa CDC-0054) | MIC (A. baumannii CDC-0045; [6]) | MIC (A. baumannii 1258916; [7]) | EC50 (A. baumannii PBP1a)
1 | O=C(O)c1c(F)ccc2c1OB(O)[C@@H](NC(=O)C(NC(=O)N1CCN(C3CCN(C(=O)Nc4c(F)ccc(O)c4F)CC3)C(=O)C1=O)c1cc(F)c(O)c(O)c1Cl)C2 (stereo partly drawn) [Example 487, (3R)-3-(2-(2-chloro-5-fluoro-3,4-dihydroxyphenyl)-2-(4-(1-((2,6-difluoro-3-hydroxyphenyl)carbamoyl)piperidin-4-yl)-2,3-dioxopiperazine-1-carboxamido)acetamido)-7-fluoro-2-hydroxy-3,4-dihydro-2H-benzo[e][1,2]oxaborinine-8-carboxylic acid] | < 1 µg/mL | < 1 µg/mL | 2 to 4 µg/mL (≈ 2.39 to 4.78 µM) | < 1 µg/mL | < 1 µg/mL | 2 to 4 µg/mL (≈ 2.39 to 4.78 µM) | 10 to 50 µM | < 10 µM | < 1 µg/mL |  |  | 
2 | O=C(O)c1c(F)ccc2c1OB(O)[C@@H](NC(=O)[C@H](NC(=O)N1CCN(C3CCN(C(=O)c4ccc(F)c(O)c4Cl)CC3)C1=O)c1cc(F)c(O)c(O)c1Cl)C2 [Example 438, (R)-3-((R)-2-(3-(1-(2-chloro-4-fluoro-3-hydroxybenzoyl)piperidin-4-yl)-2-oxoimidazolidine-1-carboxamido)-2-(2-chloro-5-fluoro-3,4-dihydroxyphenyl)acetamido)-7-fluoro-2-hydroxy-3,4-dihydro-2H-benzo[e][1,2]oxaborinine-8-carboxylic acid] |  | < 1 µg/mL | < 1 µg/mL | < 1 µg/mL |  | 2 to 4 µg/mL (≈ 2.47 to 4.94 µM) | < 10 µM | < 10 µM | < 1 µg/mL | < 1 µg/mL | < 1 µg/mL | 
3 | O=C(O)c1c(F)ccc2c1OB(O)[C@@H](NC(=O)[C@H](NC(=O)N1CCN(C3CCN(C(=O)Nc4cccc(O)c4Cl)CC3)C1=O)c1cc(F)c(O)c(O)c1Cl)C2 [Example 447, (R)-3-((R)-2-(3-(1-((2-chloro-3-hydroxyphenyl)carbamoyl)piperidin-4-yl)-2-oxoimidazolidine-1-carboxamido)-2-(2-chloro-5-fluoro-3,4-dihydroxyphenyl)acetamido)-7-fluoro-2-hydroxy-3,4-dihydro-2H-benzo[e][1,2]oxaborinine-8-carboxylic acid] |  | < 1 µg/mL | < 1 µg/mL | < 1 µg/mL |  | < 1 µg/mL | < 10 µM | < 10 µM | < 1 µg/mL | < 1 µg/mL | < 1 µg/mL | 
4 | O=C(O)c1c(F)ccc2c1OB(O)[C@@H](NC(=O)C(NC(=O)N1CCN(C3CCN(C(=O)Nc4ccc(Cl)c(O)c4F)CC3)C(=O)C1=O)c1cc(F)c(O)c(O)c1Cl)C2 (stereo partly drawn) [Example 489, (3R)-3-(2-(4-(1-((4-chloro-2-fluoro-3-hydroxyphenyl)carbamoyl)piperidin-4-yl)-2,3-dioxopiperazine-1-carboxamido)-2-(2-chloro-5-fluoro-3,4-dihydroxyphenyl)acetamido)-7-fluoro-2-hydroxy-3,4-dihydro-2H-benzo[e][1,2]oxaborinine-8-carboxylic acid] | < 1 µg/mL | < 1 µg/mL | 32 to 64 µg/mL (≈ 37.5 to 75 µM) | 2 to 4 µg/mL (≈ 2.34 to 4.69 µM) | < 1 µg/mL | 2 to 4 µg/mL (≈ 2.34 to 4.69 µM) | < 10 µM | < 10 µM | < 1 µg/mL |  |  | 
5 | O=C(O)c1c(F)ccc2c1OB(O)[C@@H](NC(=O)[C@H](NC(=O)N1CCN(Cc3ccc(O)c(O)c3Cl)C(=O)C1=O)c1cccc(P(=O)(O)O)c1)C2 (single isomer, unassigned) [Example 163] |  | < 1 µg/mL | < 1 µg/mL | < 1 µg/mL |  | 2 to 4 µg/mL (≈ 2.72 to 5.44 µM) | < 10 µM | 10 to 50 µM | < 1 µg/mL | < 1 µg/mL | < 1 µg/mL | 
6 | O=C(O)c1c(F)ccc2c1OB(O)[C@@H](NC(=O)[C@H](NC(=O)N1CCN(C3CCN(C(=O)c4cccnc4)CC3)C1=O)c1cc(F)c(O)c(O)c1Cl)C2 [Example 460, (R)-3-((R)-2-(2-chloro-5-fluoro-3,4-dihydroxyphenyl)-2-(3-(1-nicotinoylpiperidin-4-yl)-2-oxoimidazolidine-1-carboxamido)acetamido)-7-fluoro-2-hydroxy-3,4-dihydro-2H-benzo[e][1,2]oxaborinine-8-carboxylic acid] |  | < 1 µg/mL | < 1 µg/mL | < 1 µg/mL |  | < 1 µg/mL |  | 10 to 50 µM | < 1 µg/mL | < 1 µg/mL | < 1 µg/mL | 10 to 50 µM
7 | O=C(O)c1c(F)ccc2c1OB(O)[C@@H](NC(=O)[C@H](NC(=O)N1CCN(C3CCN(C(=O)c4ccc(O)cc4)CC3)C1=O)c1cc(F)c(O)c(O)c1Cl)C2 (single isomer, unassigned) [Example 463] |  | < 1 µg/mL | < 1 µg/mL | < 1 µg/mL |  | < 1 µg/mL | < 10 µM | < 10 µM | < 1 µg/mL | < 1 µg/mL | < 1 µg/mL | 
8 | O=C(O)c1c(F)ccc2c1OB(O)[C@@H](NC(=O)C(NC(=O)N1CCN(C3CCN(C(=O)Nc4cc(O)cc(F)c4)CC3)C(=O)C1=O)c1cc(F)c(O)c(O)c1Cl)C2 (stereo partly drawn) [Example 481, (3R)-3-(2-(2-chloro-5-fluoro-3,4-dihydroxyphenyl)-2-(4-(1-((3-fluoro-5-hydroxyphenyl)carbamoyl)piperidin-4-yl)-2,3-dioxopiperazine-1-carboxamido)acetamido)-7-fluoro-2-hydroxy-3,4-dihydro-2H-benzo[e][1,2]oxaborinine-8-carboxylic acid] |  | < 1 µg/mL | 32 to 64 µg/mL (≈ 39.1 to 78.2 µM) | 2 to 4 µg/mL (≈ 2.44 to 4.88 µM) |  | 2 to 4 µg/mL (≈ 2.44 to 4.88 µM) | < 10 µM | < 10 µM | < 1 µg/mL | < 1 µg/mL | < 1 µg/mL | 
9 | O=C(O)c1c(F)ccc2c1OB(O)[C@@H](NC(=O)[C@H](NC(=O)N1CCN(C3CCN(C(=O)c4cc(F)c(F)c(O)c4F)CC3)C1=O)c1cc(F)c(O)c(O)c1Cl)C2 (single isomer, unassigned) [Example 441] |  | < 1 µg/mL | < 1 µg/mL | 2 to 4 µg/mL (≈ 2.46 to 4.93 µM) |  | < 1 µg/mL | < 10 µM | < 10 µM | < 1 µg/mL | < 1 µg/mL | < 1 µg/mL | 
10 | O=C(O)c1c(F)ccc2c1OB(O)[C@@H](NC(=O)[C@H](NC(=O)N1CCN(C3CCN(Cc4ccncc4)CC3)C1=O)c1cc(F)c(O)c(O)c1Cl)C2 [Example 493, (R)-3-((R)-2-(2-chloro-5-fluoro-3,4-dihydroxyphenyl)-2-(2-oxo-3-(1-(pyridin-4-ylmethyl)piperidin-4-yl)imidazolidine-1-carboxamido)acetamido)-7-fluoro-2-hydroxy-3,4-dihydro-2H-benzo[e][1,2]oxaborinine-8-carboxylic acid] | < 1 µg/mL | < 1 µg/mL | < 1 µg/mL | 2 to 4 µg/mL (≈ 2.74 to 5.49 µM) | < 1 µg/mL | < 1 µg/mL | < 10 µM | 10 to 50 µM | 2 to 4 µg/mL (≈ 2.74 to 5.49 µM) |  |  | 
11 | O=C(O)c1c(F)ccc2c1OB(O)[C@@H](NC(=O)C(NC(=O)N1CCN(C3CCN(C(=O)Nc4cc(O)c(F)cc4Cl)CC3)C(=O)C1=O)c1cc(F)c(O)c(O)c1Cl)C2 (stereo partly drawn) [Example 490, (3R)-3-(2-(4-(1-((2-chloro-4-fluoro-5-hydroxyphenyl)carbamoyl)piperidin-4-yl)-2,3-dioxopiperazine-1-carboxamido)-2-(2-chloro-5-fluoro-3,4-dihydroxyphenyl)acetamido)-7-fluoro-2-hydroxy-3,4-dihydro-2H-benzo[e][1,2]oxaborinine-8-carboxylic acid] | < 1 µg/mL | < 1 µg/mL | > 128 µg/mL | 2 to 4 µg/mL (≈ 2.34 to 4.69 µM) | 2 to 4 µg/mL (≈ 2.34 to 4.69 µM) | 2 to 4 µg/mL (≈ 2.34 to 4.69 µM) | < 10 µM | 10 to 50 µM | 8 to 16 µg/mL (≈ 9.37 to 18.7 µM) |  |  | 
